Laboratory results taken from patent US8188101B2 (AstraZeneca AB, priority 2008, dated 2012).

System: Aβ42 release
Assay: Aβ release in cells stably expressing APPswe, Meso Scale Discovery electrochemiluminescence assay
Format: cell-based, Human
Details: HEK or SH-SY5Y cells stably expressing APPswe, 4-6 hours incubation with test compound; for IC50: Homo sapiens, SH-SY5Y
Procedure: The level of activity of the compounds on Aβ release was tested using the following method:
Compounds were diluted in 100% DMSO and stored at […] prior to use. Human Embryonic Kidney (HEK) or Human Neuroblastoma (SH-SY5Y) cell lines stably expressing APP with the Swedish mutation (APPswe) were cultured using Dulbecco's Modified Eagles medium (DMEM) supplied with […] glucose, Na-pyruvate and GlutaMAX with 10% FBS, 100 U/ml penicillin-streptomycin (PEST) respectively, 1× non-essential amino acids (NEAA), […] Hepes, 100 μg/ml Zeocine. Cells at about 80% confluence were washed with PBS, detached from culture flasks using 1× Trypsin/EDTA diluted in PBS, re-suspended in cell media and plated in 384-well poly-d-lysine coated cell culture plates at about 10000-15000 cells/well, in 25 μL cell media. Optionally, cryo-preserved cells (frozen and stored at −140° C. in 90% cell media and 10% DMSO) were thawed, washed and plated as above. Next the cells were incubated for 15-24 h at 37° C. and 5% CO2, after which cell medium was changed. Fresh medium containing test compound diluted ×200 from prepared compound plate was added to the cells before further incubation for 4-6 hours at 37° C. and 5% CO2. After incubation with test compound the amount of Aβ peptides, including Aβ42, Aβ40, Aβ39, Aβ38 and Aβ37, secreted to the cell medium was analyzed using the electrochemiluminescence assay technology from Meso Scale Discovery Technology, in combination with specific antibodies raised against the different Aβ peptides. Potential cytotoxic effects of the compounds were usually assayed by measuring the ATP content (ViaLight) from cell lysate.

| Structure (SMILES) | IC50 [nM] | pIC50 |
| --- | --- | --- |
| Cc1nccn1-c1ccc(Nc2nc3c(c(NC[C@H]4CCCO4)n2)CN(C)CC3)cc1 [Example 74, (R)-6-Methyl-N2-(4-(2-methyl-1H-imidazol-1-yl)phenyl)-N4-((tetrahydrofuran-2-yl)methyl)-5,6,7,8-tetrahydropyrido[4,3-d]pyrimidine-2,4-diamine] | 1000 |  |
| c1ccc(COc2nc(Nc3ccc(-c4cnco4)cc3)nc3c2CNCC3)cc1 [Example 12, 4-(Benzyloxy)-N-(4-(oxazol-5-yl)phenyl)-5,6,7,8-tetrahydropyrido[4,3-d]pyrimidin-2-amine] | 3980 |  |
| Cc1nccn1-c1ccc(Nc2nc3c(c(Cc4ccccc4F)n2)CN(C)CC3)cc1 [Example 52, 4-(2-Fluorobenzyl)-6-methyl-N-(4-(2-methyl-1H-imidazol-1-yl)phenyl)-5,6,7,8-tetrahydropyrido[4,3-d]pyrimidin-2-amine] | 316 |  |
| Cc1nccn1-c1ccc(Nc2nc3c(c(C(C)c4ccccc4)n2)CN(C)CC3)cc1 (single isomer, unassigned) [Example 70, 6-Methyl-N-(4-(2-methyl-1H-imidazol-1-yl)phenyl)-4-(1-phenylethyl)-5,6,7,8-tetrahydropyrido[4,3-d]pyrimidin-2-amine] |  | 6.2 |
| Cc1nccn1-c1ccc(Nc2nc3c(c(Cc4ccccc4)n2)CN(C)CC3)cc1 [Example 42, 4-Benzyl-6-methyl-N-(4-(2-methyl-1H-imidazol-1-yl)phenyl)-5,6,7,8-tetrahydropyrido[4,3-d]pyrimidin-2-amine] | 398 |  |
| CC(=O)N1CCc2nc(Nc3ccc(-c4cnco4)cc3)nc(N(CCO)Cc3ccccc3)c2C1 [Example 32, 1-(4-(Benzyl(2-hydroxyethyl)amino)-2-(4-(oxazol-5-yl)phenylamino)-7,8-dihydropyrido[4,3-d]pyrimidin-6(5H)-yl)ethanone] | 794 |  |
| CN1CCc2nc(Nc3ccc(-c4cnn(C)c4)cc3)nc(N(CCO)c3ccccc3)c2C1 [Example 38, 2-((6-Methyl-2-(4-(1-methyl-1H-pyrazol-4-yl)phenylamino)-5,6,7,8-tetrahydropyrido[4,3-d]pyrimidin-4-yl)(phenyl)amino)ethanol] | 398 |  |
| Cc1nccn1-c1ccc(Nc2nc3c(c(CC4CCCC4)n2)CN(C)CC3)cc1 [Example 55, 4-(Cyclopentylmethyl)-6-methyl-N-(4-(2-methyl-1H-imidazol-1-yl)phenyl)-5,6,7,8-tetrahydropyrido[4,3-d]pyrimidin-2-amine] | 316 |  |
| Cc1nccn1-c1ccc(Nc2nc3c(c(Cc4ccc(F)cc4)n2)CC(C(F)(F)F)CC3)cc1 (centres unmarked) [Example 99, 4-(4-Fluorobenzyl)-N-(4-(2-methyl-1H-imidazol-1-yl)phenyl)-6-(trifluoromethyl)-5,6,7,8-tetrahydroquinazolin-2-amine] | 316 |  |
| CC(=O)N1CCc2nc(Nc3ccc(-c4cnco4)cc3)nc(N3CCc4ccccc43)c2C1 [Example 90, 1-(4-(Indolin-1-yl)-2-(4-(oxazol-5-yl)phenylamino)-7,8-dihydropyrido[4,3-d]pyrimidin-6(5H)-yl)ethanone] | 631 |  |
| CCS(=O)(=O)N1CCc2nc(Nc3ccc(-c4cnco4)cc3)nc(N(CCO)c3ccccc3)c2C1 [Example 22, 2-((6-(Ethylsulfonyl)-2-(4-(oxazol-5-yl)phenylamino)-5,6,7,8-tetrahydropyrido[4,3-d]pyrimidin-4-yl)(phenyl)amino)ethanol] | 398 |  |
| CN(C)CC(=O)N1CCc2nc(Nc3ccc(-c4cnco4)cc3)nc(N(CCO)c3ccccc3)c2C1 [Example 17, 2-(Dimethylamino)-1-(4-((2-hydroxyethyl)(phenyl)amino)-2-(4-(oxazol-5-yl)phenylamino)-7,8-dihydropyrido[4,3-d]pyrimidin-6(5H)-yl)ethanone] | 1580 |  |
| COc1cc(Nc2nc3c(c(CCN4CCCC4=O)n2)COCC3)ccc1-n1cnc(C)c1 [Example 110, 1-(2-(2-(3-Methoxy-4-(4-methyl-1H-imidazol-1-yl)phenylamino)-7,8-dihydro-5H-pyrano[4,3-d]pyrimidin-4-yl)ethyl)pyrrolidin-2-one] | 2510 |  |
| COc1cccc(Cc2nc(Nc3ccc(-n4ccnc4C)cc3)nc3c2CN(CCO)CC3)c1 [Example 57, 2-(4-(3-Methoxybenzyl)-2-(4-(2-methyl-1H-imidazol-1-yl)phenylamino)-7,8-dihydropyrido[4,3-d]pyrimidin-6(5H)-yl)ethanol] | 398 |  |

Second part, the compound after the results:

| IC50 [nM] | pIC50 | Structure (SMILES) |
| --- | --- | --- |
| 251 |  | Cc1ccc(Cc2nc(Nc3ccc(-n4ccnc4C)cc3)nc3c2CN(C)CC3)cc1 [Example 50, 6-Methyl-N-(4-(2-methyl-1H-imidazol-1-yl)phenyl)-4-(4-methylbenzyl)-5,6,7,8-tetrahydropyrido[4,3-d]pyrimidin-2-amine] |
| 200 |  | Cc1nccn1-c1ccc(Nc2nc3c(c(Cc4ccccc4)n2)CN(CCO)CC3)cc1 [Example 41, 2-(4-Benzyl-2-(4-(2-methyl-1H-imidazol-1-yl)phenylamino)-7,8-dihydropyrido[4,3-d]pyrimidin-6(5H)-yl)ethanol] |
| 200 |  | COc1cc(Nc2nc3c(c(C(C)n4nc(C)cc4C)n2)COCC3)ccc1-n1cnc(C)c1 (centres unmarked) [Example 104, 4-(1-(3,5-Dimethyl-1H-pyrazol-1-yl)ethyl)-N-(3-methoxy-4-(4-methyl-1H-imidazol-1-yl)phenyl)-7,8-dihydro-5H-pyrano[4,3-d]pyrimidin-2-amine] |
| 251 |  | CN1CCc2nc(Nc3ccc(-c4cnco4)cc3)nc(NCC3CCOCC3)c2C1 [Example 85, 6-Methyl-N2-(4-(oxazol-5-yl)phenyl)-N4-((tetrahydro-2H-pyran-4-yl)methyl)-5,6,7,8-tetrahydropyrido[4,3-d]pyrimidine-2,4-diamine] |
| 50.1 |  | COc1cc(Nc2nc3c(c(C(OC)c4ccccc4)n2)COCC3)ccc1-n1cnc(C)c1 (centres unmarked) [Example 101, 4-(Methoxy(phenyl)methyl)-N-(3-methoxy-4-(4-methyl-1H-imidazol-1-yl)phenyl)-7,8-dihydro-5H-pyrano[4,3-d]pyrimidin-2-amine] |
| 126 |  | COc1cc(Nc2nc(CCC3CCCO3)c3c(n2)CCN(C)C3)ccc1-n1cnc(C)c1 (centres unmarked) [Example 112, N-(3-Methoxy-4-(4-methyl-1H-imidazol-1-yl)phenyl)-6-methyl-4-(2-(tetrahydrofuran-2-yl)ethyl)-5,6,7,8-tetrahydropyrido[4,3-d]pyrimidin-2-amine] |
| 126 |  | CC(=O)N1CCc2nc(Nc3ccc(-c4cnco4)cc3)nc(NC3CCCCC3)c2C1 [Example 26, 1-(4-(Cyclohexylamino)-2-(4-(oxazol-5-yl)phenylamino)-7,8-dihydropyrido[4,3-d]pyrimidin-6(5H)-yl)ethanone] |
| 63.1 |  | COc1cccc(Cc2nc(Nc3ccc(-n4cnc(C)c4)c(OC)c3)nc3c2CN(C(C)=O)CC3)c1 [Example 96, 1-(2-(3-Methoxy-4-(4-methyl-1H-imidazol-1-yl)phenylamino)-4-(3-methoxybenzyl)-7,8-dihydropyrido[4,3-d]pyrimidin-6(5H)-yl)ethanone] |
| 158 |  | CN1CCc2nc(Nc3ccc(-c4cnco4)cc3)nc(NC[C@H]3CCCO3)c2C1 [Example 84, (R)-6-Methyl-N2-(4-(oxazol-5-yl)phenyl)-N4-((tetrahydrofuran-2-yl)methyl)-5,6,7,8-tetrahydropyrido[4,3-d]pyrimidine-2,4-diamine] |
